Assay results: patent US20060069132A1, “Azolecarboxamide herbicides” (priority 2004, published 2006)

Key:
[1] = tested on: corn; assay: Test B pre-/postemergence herbicide test; assay type: in vivo, Zea mays; details: for Corn plant response rating: postemergence
Outline: (§1)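 Herbicidal effect was judged by eye on a 0–100 scale after plants stood 13 to 15 days in the greenhouse following pre- or postemergence treatment with surfactant-containing formulations.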

[2] = tested on: giant foxtail; assay: Test B pre-/postemergence herbicide test; assay type: in vivo, Setaria faberi; details: for Foxtail, Giant plant response rating: postemergence
Outline: as §1

[3] = tested on: barnyardgrass; assay: Test B pre-/postemergence herbicide test; assay type: in vivo, Echinochloa crus-galli; details: for Barnyardgrass plant response rating: postemergence
Outline: (§2)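 Pre: seeds sown, then sprayed. Post: 1–4-leaf plants (2–18 cm) sprayed at the same time. Paddy: flooded, treated at 2-leaf stage. Formulation: non-phytotoxic solvent with surfactant. Greenhouse 13–15 days; visual 0–100 score relative to controls.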

[4] = tested on: large crabgrass; assay: Test B pre-/postemergence herbicide test; assay type: in vivo, Digitaria sanguinalis; details: for Crabgrass, Large plant response rating: postemergence
Outline: as §1

[5] = tested on: barnyardgrass; assay: Test B flooded paddy test; assay type: in vivo, Echinochloa crus-galli; details: 1000 g ai/ha, scale 0 to 100 (0 no effect, 100 complete control)
Outline: (§3)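 Read-out: visual comparison with controls, scored 0 to 100, where 100 means complete control and 0 no effect. Formulated chemicals were applied postemergence to plants 2–18 cm tall (1- to 4-leaf), or to flooded-paddy plants at the 2-leaf stage, then held 13 to 15 days under glass.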

[6] = tested on: cocklebur; assay: Test B pre-/postemergence herbicide test; assay type: in vivo, Xanthium strumarium; details: for Cocklebur plant response rating: postemergence
Outline: as §2

[7] = tested on: rice; assay: Test B flooded paddy test; assay type: in vivo, Oryza sativa; details: 1000 g ai/ha, scale 0 to 100 (0 no effect, 100 complete control)
Outline: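 Treated at 2-leaf (paddy) or 1–4-leaf, 2–18 cm (postemergence); greenhouse 13–15 d; visual score vs control, 0 none to 100 complete control; dash = not tested.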

[8] = tested on: blackgrass; assay: Test B postemergence herbicide test; assay type: in vivo, Alopecurus myosuroides; details: scale 0 (no effect) to 100 (complete control); for Blackgrass plant response rating: postemergence, visual rating
Outline: as §3

[9] = tested on: velvetleaf; assay: Test B pre-/postemergence herbicide test; assay type: in vivo, Abutilon theophrasti; details: for Velvetleaf plant response rating: postemergence
Outline: as §1

[10] = tested on: ducksalad; assay: Test B flooded paddy test; assay type: in vivo, Heteranthera limosa; details: 1000 g ai/ha, scale 0 to 100 (0 no effect, 100 complete control)
Outline: as §3

[11] = tested on: small flower umbrella sedge; assay: Test B flooded paddy test; assay type: in vivo, Cyperus difformis; details: 1000 g ai/ha, scale 0 to 100 (0 no effect, 100 complete control)
Outline: as §3

[12] = tested on: lambsquarters; assay: Test B pre-/postemergence herbicide test; assay type: in vivo, Chenopodium album; details: for Lambsquarters plant response rating: postemergence
Outline: as §1

[13] = tested on: Surinam grass; assay: Test B pre-/postemergence herbicide test; assay type: in vivo, Urochloa decumbens; details: for Surinam Grass plant response rating: postemergence
Outline: as §1

[14] = tested on: morningglory; assay: Test B pre-/postemergence herbicide test; assay type: in vivo, Ipomoea coccinea; details: for Morningglory plant response rating: postemergence
Outline: as §2

[15] = tested on: pigweed; assay: Test B pre-/postemergence herbicide test; assay type: in vivo, Amaranthus retroflexus; details: for Pigweed plant response rating: postemergence
Outline: as §1

[16] = tested on: wheat; assay: Test B postemergence herbicide test; assay type: in vivo, Triticum aestivum; parameters: key to Wheat plant response rating: 0 = no effect, 100 = complete control; details: for Wheat plant response rating: postemergence
Outline: as §3

[17] = tested on: rice; assay: Test B pre-/postemergence herbicide test; assay type: in vivo, Oryza sativa; details: preemergence
Outline: as §1

[18] = tested on: wild oat; assay: Test B postemergence herbicide test; assay type: in vivo, Avena fatua; details: for Oat, Wild plant response rating: postemergence
Outline: as §3

[19] = 500 g ai/ha, visual rating 0-100, 0 no effect, 100 complete control, preemergence
[20] = Postemergence, 500 g ai/ha, visual rating after 13 to 15 days, scale 0 (no effect) to 100 (complete control)
[21] = 125 g ai/ha, visual rating, scale 0 (no effect) to 100 (complete control)
[22] = preemergence, 125 g ai/ha, 0 to 100 scale, 0 is no effect, 100 is complete control
[23] = 125 g ai/ha, 0 = no effect, 100 = complete control, preemergence
[24] = 500 g ai/ha, visual rating, 0 = no effect, 100 = complete control, preemergence
[25] = 500 g ai/ha, visual rating, scale 0 (no effect) to 100 (complete control)
[26] = 125 g ai/ha, 0 = no effect, 100 = complete control
[27] = 500 g ai/ha, visual rating, 0 = no effect, 100 = complete control
[28] = 500 g ai/ha, scale 0 to 100, 0 is no effect, 100 is complete control

Structure (SMILES): CCCCn1nc(C(C)(C)C)cc1C(=O)Nc1cccc(C(C)=NO)c1 [Compound 119]
- Plant response rating, Corn [1, 19]: 0
- Plant response rating, Corn [1, 20]: 30
- Corn plant response rating [1, 21]: 10
- Plant response rating, Corn [1, 22]: 0
- Plant response rating, Foxtail, Giant [2, 19]: 0
- Plant response rating, Foxtail, Giant [2, 20]: 10
- Foxtail, Giant plant response rating [2, 21]: 10
- Plant response rating, Foxtail, Giant [2, 22]: 0
- Plant response rating, Barnyardgrass [3, 19]: 10
- Plant response rating, Barnyardgrass [3, 20]: 10
- Barnyardgrass plant response rating [3, 21]: 0
- Plant response rating, Barnyardgrass [3, 22]: 0
- Plant response rating, Crabgrass, Large [4, 19]: 80
- Plant response rating, Crabgrass, Large [4, 20]: 20
- Crabgrass, Large plant response rating [4, 21]: 20
- Plant response rating, Crabgrass, Large [4, 22]: 20
- Barnyardgrass plant response rating ([5]; visual rating, 13 to 15 days): 0
- Plant response rating, Cocklebur [6, 19]: 0
- Plant response rating, Cocklebur [6, 20]: 60
- Cocklebur plant response rating [6, 21]: 0
- Plant response rating, Cocklebur [6, 22]: 0
- Rice plant response rating ([7]; visual rating, 13 to 15 days): 0
- Plant response rating, Blackgrass ([8]; Postemergence, 500 g ai/ha, visual rating after 13 to 15 days): 10
- Blackgrass plant response rating ([8]; 125 g ai/ha): 0
- Plant response rating, Velvetleaf [9, 19]: 10
- Plant response rating, Velvetleaf [9, 20]: 50
- Velvetleaf plant response rating [9, 21]: 0
- Plant response rating, Velvetleaf [9, 22]: 0
- Ducksalad plant response rating ([10]; visual rating, 13 to 15 days): 0
- Sedge, Umbrella plant response rating ([11]; visual rating, 13 to 15 days): 0
- Plant response rating, Lambsquarters [12, 19]: 0
- Plant response rating, Lambsquarters [12, 20]: 60
- Lambsquarters plant response rating [12, 21]: 0
- Plant response rating, Lambsquarters [12, 22]: 0
- Plant response rating, Surinam Grass [13, 19]: 10
- Plant response rating, Surinam Grass [13, 20]: 10
- Surinam Grass plant response rating [13, 21]: 10
- Plant response rating, Surinam Grass [13, 22]: 0
- Plant response rating, Morningglory [14, 19]: 10
- Plant response rating, Morningglory [14, 20]: 40
- Morningglory plant response rating [14, 21]: 0
- Plant response rating, Morningglory [14, 22]: 0
- Plant response rating, Pigweed [15, 19]: 0
- Plant response rating, Pigweed [15, 20]: 30
- Pigweed plant response rating [15, 21]: 0
- Plant response rating, Pigweed [15, 22]: 0
- Plant response rating, Wheat [16, 20]: 0
- Wheat plant response rating [16, 21]: 0
- Plant response rating, Rice ([17]; 125 g ai/ha, 0 to 100 scale, 0 is no effect, 100 is complete control): 0
- Plant response rating, Oat, Wild [18, 20]: 20
- Oat, Wild plant response rating [18, 21]: 10

Structure (SMILES): C=CCNC(=O)c1ccc(F)c(NC(=O)c2sc(CC)nc2C(C)(C)C)c1 [Compound 237]
- Corn plant response rating (0 to 100 scale) [1, 23]: 0
- Plant response rating, Corn [1, 24]: 20
- Corn plant response rating [1, 21]: 20
- Corn plant response rating [1, 25]: 40
- Foxtail, Giant plant response rating (0 to 100 scale) [2, 23]: 0
- Plant response rating, Foxtail, Giant [2, 24]: 40
- Foxtail, Giant plant response rating [2, 21]: 10
- Foxtail, Giant plant response rating [2, 25]: 20
- Barnyardgrass plant response rating (0 to 100 scale) [3, 23]: 20
- Plant response rating, Barnyardgrass [3, 24]: 50
- Crabgrass, Large plant response rating (0 to 100 scale) [4, 23]: 30
- Plant response rating, Crabgrass, Large [4, 24]: 90
- Crabgrass, Large plant response rating [4, 21]: 10
- Crabgrass, Large plant response rating [4, 25]: 20
- Barnyardgrass plant response rating [5]: 60
- Cocklebur plant response rating (0 to 100 scale) [6, 23]: 0
- Plant response rating, Cocklebur [6, 24]: 0
- Cocklebur plant response rating [6, 21]: 10
- Cocklebur plant response rating [6, 25]: 40
- Rice plant response rating [7]: 50
- Blackgrass plant response rating ([8]; 125 g ai/ha): 0
- Blackgrass plant response rating ([8]; 500 g ai/ha): 10
- Velvetleaf plant response rating (0 to 100 scale) [9, 23]: 30
- Plant response rating, Velvetleaf [9, 24]: 60
- Velvetleaf plant response rating [9, 21]: 30
- Velvetleaf plant response rating [9, 25]: 50
- Ducksalad plant response rating [10]: 80
- Sedge, Umbrella plant response rating [11]: 40
- Lambsquarters plant response rating (0 to 100 scale) [12, 23]: 70
- Plant response rating, Lambsquarters [12, 24]: 90
- Lambsquarters plant response rating [12, 21]: 60
- Lambsquarters plant response rating [12, 25]: 70
- Surinam Grass plant response rating (0 to 100 scale) [13, 23]: 10
- Plant response rating, Surinam Grass [13, 24]: 30
- Surinam Grass plant response rating [13, 21]: 20
- Surinam Grass plant response rating [13, 25]: 20
- Morningglory plant response rating (0 to 100 scale) [14, 23]: 0
- Plant response rating, Morningglory [14, 24]: 20
- Morningglory plant response rating [14, 21]: 20
- Morningglory plant response rating [14, 25]: 60
- Pigweed plant response rating (0 to 100 scale) [15, 23]: 20
- Plant response rating, Pigweed [15, 24]: 70
- Pigweed plant response rating [15, 21]: 30
- Pigweed plant response rating [15, 25]: 60
- Wheat plant response rating [16, 21]: 10
- Wheat plant response rating [16, 25]: 20
- Rice plant response rating (0 to 100 scale) [17, 26]: 0
- Plant response rating, Rice [17, 27]: 30
- Oat, Wild plant response rating [18, 21]: 0
- Oat, Wild plant response rating [18, 25]: 20

Structure (SMILES): CCc1nn(C(C)(C)C)cc1C(=O)Nc1ccc(F)c(C(=O)N(CC)CC)c1 [Compound 240]
- Corn plant response rating (0 to 100 scale) [1, 23]: 0
- Plant response rating, Corn [1, 24]: 0
- Corn plant response rating [1, 21]: 0
- Corn plant response rating [1, 28]: 10
- Foxtail, Giant plant response rating (0 to 100 scale) [2, 23]: 0
- Plant response rating, Foxtail, Giant [2, 24]: 80
- Foxtail, Giant plant response rating [2, 21]: 0
- Foxtail, Giant plant response rating [2, 28]: 0
- Barnyardgrass plant response rating (0 to 100 scale) [3, 23]: 0
- Plant response rating, Barnyardgrass [3, 24]: 70
- Barnyardgrass plant response rating [3, 21]: 0
- Barnyardgrass plant response rating [3, 25]: 0
- Crabgrass, Large plant response rating (0 to 100 scale) [4, 23]: 20
- Plant response rating, Crabgrass, Large [4, 24]: 100
- Crabgrass, Large plant response rating [4, 21]: 0
- Crabgrass, Large plant response rating [4, 28]: 20
- Barnyardgrass plant response rating [5]: 0
- Cocklebur plant response rating (0 to 100 scale) [6, 23]: 0
- Plant response rating, Cocklebur [6, 24]: 0
- Cocklebur plant response rating [6, 21]: 0
- Cocklebur plant response rating [6, 25]: 20
- Rice plant response rating [7]: 0
- Blackgrass plant response rating ([8]; 125 g ai/ha): 0
- Blackgrass plant response rating ([8]; 500 g ai/ha): 10
- Velvetleaf plant response rating (0 to 100 scale) [9, 23]: 0
- Velvetleaf plant response rating [9, 21]: 0
- Velvetleaf plant response rating [9, 28]: 10
- Ducksalad plant response rating [10]: 0
- Sedge, Umbrella plant response rating [11]: 60
- Lambsquarters plant response rating (0 to 100 scale) [12, 23]: 0
- Plant response rating, Lambsquarters [12, 24]: 80
- Lambsquarters plant response rating [12, 21]: 20
- Lambsquarters plant response rating [12, 28]: 50
- Surinam Grass plant response rating (0 to 100 scale) [13, 23]: 0
- Plant response rating, Surinam Grass [13, 24]: 20
- Surinam Grass plant response rating [13, 21]: 0
- Surinam Grass plant response rating [13, 28]: 20
- Morningglory plant response rating (0 to 100 scale) [14, 23]: 0
- Plant response rating, Morningglory [14, 24]: 0
- Morningglory plant response rating [14, 21]: 20
- Morningglory plant response rating [14, 28]: 30
- Pigweed plant response rating (0 to 100 scale) [15, 23]: 0
- Plant response rating, Pigweed [15, 24]: 100
- Pigweed plant response rating [15, 21]: 0
- Pigweed plant response rating [15, 28]: 50
- Wheat plant response rating [16, 21]: 0
- Wheat plant response rating [16, 28]: 20
- Rice plant response rating (0 to 100 scale) [17, 26]: 0
- Plant response rating, Rice [17, 27]: 0
- Oat, Wild plant response rating [18, 21]: 0
- Oat, Wild plant response rating [18, 28]: 0
